Measured values published in publication PMC5218480 (PLoS ONE, 2017).

Tested on: MV-4-11 cells
Assay: Gene expression microarray analysis (Affymetrix PrimeView) and GSEA
Assay type: cell-based, human
Parameters: RFU PODN (11730768_x_at) / Fold change /veh PODN (11730768_x_at) / RFU LINC00158 (11744669_a_at) / Fold change /veh LINC00158 (11744669_a_at) / RFU DUSP10 (11751237_a_at) / Fold change /veh DUSP10 (11751237_a_at) / RFU ID3 (11757404_x_at) / Fold change /veh ID3 (11757404_x_at) / RFU PLEKHG5 (11737974_s_at) / Fold change /veh PLEKHG5 (11737974_s_at) / RFU LRRC4B (11730491_at) / Fold change /veh LRRC4B (11730491_at) / RFU GIMAP4 (11747438_a_at) / Fold change /veh GIMAP4 (11747438_a_at) / RFU KRT8 (11758183_x_at) / Fold change /veh KRT8 (11758183_x_at) / RFU CNN1 (11734310_a_at) / Fold change /veh CNN1 (11734310_a_at) / RFU VPS37D (11726825_at) / Fold change /veh VPS37D (11726825_at) / RFU C10orf10 (11716522_x_at) / Fold change /veh C10orf10 (11716522_x_at) / RFU KIR2DL2 /// KIR2DL4 /// KIR2DL5A /// KIR2DL5B /// KIR2DS1 /// KIR2DS2 /// KIR2DS3 /// KIR2DS4 /// KIR3DL3 /// KIR3DL3 /// KIR3DS1 (11738374_at) / Fold change /veh KIR2DL2 /// KIR2DL4 /// KIR2DL5A /// KIR2DL5B /// KIR2DS1 /// KIR2DS2 /// KIR2DS3 /// KIR2DS4 /// KIR3DL3 /// KIR3DL3 /// KIR3DS1 (11738374_at) / RFU C1QL1 (11718748_at) / Fold change /veh C1QL1 (11718748_at) / RFU TMPRSS4 (11747572_a_at) / Fold change /veh TMPRSS4 (11747572_a_at) / RFU HAMP (11756126_x_at) / Fold change /veh HAMP (11756126_x_at) / RFU RNFT2 (11725882_a_at) / Fold change /veh RNFT2 (11725882_a_at) / RFU NR4A2 (11747474_a_at) / Fold change /veh NR4A2 (11747474_a_at) / RFU ABCC12 (11746883_a_at) / Fold change /veh ABCC12 (11746883_a_at) / RFU TMEM136 (11760407_x_at) / Fold change /veh TMEM136 (11760407_x_at) / RFU CLDN22 /// WWC2 (11732394_at) / Fold change /veh CLDN22 /// WWC2 (11732394_at) / RFU HLA-DPB1 (11760878_x_at) / Fold change /veh HLA-DPB1 (11760878_x_at) / RFU SPINT1 (11716480_a_at) / Fold change /veh SPINT1 (11716480_a_at) / RFU GAP43 (11754022_s_at) / Fold change /veh GAP43 (11754022_s_at) / RFU A4GNT (11735810_at) / Fold change /veh A4GNT (11735810_at) / RFU PRB3 (11715151_x_at) / Fold change /veh PRB3 (11715151_x_at) / RFU TUBB4B (11761932_at) / Fold change /veh TUBB4B (11761932_at) / RFU CAPN14 (11732068_a_at) / Fold change /veh CAPN14 (11732068_a_at) / RFU TMCC2 (11721928_a_at) / Fold change /veh TMCC2 (11721928_a_at) / RFU IRGQ (11745062_a_at) / Fold change /veh IRGQ (11745062_a_at) / RFU FAM174B (11720279_a_at) / Fold change /veh FAM174B (11720279_a_at) / RFU TMPRSS4 (11748680_a_at) / Fold change /veh TMPRSS4 (11748680_a_at) / RFU FAM212B (11763350_a_at) / Fold change /veh FAM212B (11763350_a_at) / RFU PLEKHG5 (11743358_a_at) / Fold change /veh PLEKHG5 (11743358_a_at) / RFU ZSCAN30 (11745921_a_at) / Fold change /veh ZSCAN30 (11745921_a_at) / RFU CMKLR1 (11741424_a_at) / Fold change /veh CMKLR1 (11741424_a_at) / RFU LOC101060620 /// MAPK8IP1 (11723275_at) / Fold change /veh LOC101060620 /// MAPK8IP1 (11723275_at) / RFU SPTSSB (11747773_x_at) / Fold change /veh SPTSSB (11747773_x_at) / RFU PRSS12 (11739890_at) / Fold change /veh PRSS12 (11739890_at) / RFU BIN1 (11741810_x_at) / Fold change /veh BIN1 (11741810_x_at) / RFU WNT11 (11732464_a_at) / Fold change /veh WNT11 (11732464_a_at) / RFU C10orf10 (11716521_a_at) / Fold change /veh C10orf10 (11716521_a_at) / RFU C5orf56 (11738089_at) / Fold change /veh C5orf56 (11738089_at) / RFU CYB561 (11721691_x_at) / Fold change /veh CYB561 (11721691_x_at) / RFU ANKRD19P (11752326_a_at) / Fold change /veh ANKRD19P (11752326_a_at) / RFU OR2T12 /// OR2T33 /// OR2T8 (11738714_s_at) / Fold change /veh OR2T12 /// OR2T33 /// OR2T8 (11738714_s_at) / RFU VCAN (11748164_a_at) / Fold change /veh VCAN (11748164_a_at) / RFU JSRP1 (11732532_at) / Fold change /veh JSRP1 (11732532_at) / RFU KRTAP10-11 (11738290_x_at) / Fold change /veh KRTAP10-11 (11738290_x_at) / RFU MYO3A (11730013_a_at) / Fold change /veh MYO3A (11730013_a_at) / RFU EBF3 (11725865_a_at) / Fold change /veh EBF3 (11725865_a_at) / RFU CAMK2N1 (11719241_x_at) / Fold change /veh CAMK2N1 (11719241_x_at) / RFU C5orf56 (11738088_a_at) / Fold change /veh C5orf56 (11738088_a_at) / RFU OLFML3 (11715873_a_at) / Fold change /veh OLFML3 (11715873_a_at) / RFU LOC100653217 /// NTM (11731650_a_at) / Fold change /veh LOC100653217 /// NTM (11731650_a_at) / RFU MAPK11 (11762145_a_at) / Fold change /veh MAPK11 (11762145_a_at) / RFU FIZ1 (11724087_x_at) / Fold change /veh FIZ1 (11724087_x_at) / RFU OASL (11726364_x_at) / Fold change /veh OASL (11726364_x_at) / RFU SOX15 (11748057_x_at) / Fold change /veh SOX15 (11748057_x_at) / RFU CD79A (11719716_a_at) / Fold change /veh CD79A (11719716_a_at) / RFU HIST1H1D (11736915_at) / Fold change /veh HIST1H1D (11736915_at) / RFU CASKIN2 (11723855_a_at) / Fold change /veh CASKIN2 (11723855_a_at) / RFU LOC730098 (11760151_x_at) / Fold change /veh LOC730098 (11760151_x_at) / RFU OR4N2 (11742367_at) / Fold change /veh OR4N2 (11742367_at) / RFU PRRT2 (11749266_a_at) / Fold change /veh PRRT2 (11749266_a_at) / RFU SNX32 (11753110_a_at) / Fold change /veh SNX32 (11753110_a_at) / RFU CDHR5 (11726645_a_at) / Fold change /veh CDHR5 (11726645_a_at) / RFU RCAN1 (11760418_a_at) / Fold change /veh RCAN1 (11760418_a_at) / RFU FAM167A (11723789_a_at) / Fold change /veh FAM167A (11723789_a_at) / RFU FAM26E (11764081_at) / Fold change /veh FAM26E (11764081_at) / RFU ISYNA1 (11749810_s_at) / Fold change /veh ISYNA1 (11749810_s_at) / RFU ACY1 (11761880_at) / Fold change /veh ACY1 (11761880_at) / RFU 11764098_at / Fold change /veh 11764098_at / RFU SAMD14 (11745864_x_at) / Fold change /veh SAMD14 (11745864_x_at) / RFU NPB (11741838_a_at) / Fold change /veh NPB (11741838_a_at) / RFU TMPRSS6 (11731388_a_at) / Fold change /veh TMPRSS6 (11731388_a_at) / RFU KRTAP10-2 (11738614_at) / Fold change /veh KRTAP10-2 (11738614_at) / RFU ARHGAP8 /// PRR5-ARHGAP8 (11727945_x_at) / Fold change /veh ARHGAP8 /// PRR5-ARHGAP8 (11727945_x_at) / RFU KRTAP5-7 /// NADSYN1 (11734609_at) / Fold change /veh KRTAP5-7 /// NADSYN1 (11734609_at) / RFU RASL12 (11751679_a_at) / Fold change /veh RASL12 (11751679_a_at) / RFU CDKN2B (11736163_a_at) / Fold change /veh CDKN2B (11736163_a_at) / RFU PRF1 (11729649_at) / Fold change /veh PRF1 (11729649_at) / RFU, ZNF638 /// ZNF638-IT1 / Fold change vs veh, ZNF638 /// ZNF638-IT1 / RFU, PANK3 / Fold change vs veh, PANK3 / RFU, SH3YL1 / Fold change vs veh, SH3YL1 / RFU, ZEB2 / Fold change vs veh, ZEB2 / RFU, NRIP1 / Fold change vs veh, NRIP1 / RFU, PTTG1IP / Fold change vs veh, PTTG1IP / RFU, CAPN2 / Fold change vs veh, CAPN2 / RFU, MED14 / Fold change vs veh, MED14 / RFU, SNORA58 / Fold change vs veh, SNORA58 / RFU, C1orf63 / Fold change vs veh, C1orf63 / RFU, LRRFIP1 / Fold change vs veh, LRRFIP1 / RFU, NDUFAF7 / Fold change vs veh, NDUFAF7 / RFU, SLC12A2 / Fold change vs veh, SLC12A2 / RFU, IBTK / Fold change vs veh, IBTK / RFU, ESF1 / Fold change vs veh, ESF1 / Fold change vs veh, TMEM50B / RFU, TAOK1 / Fold change vs veh, TAOK1 / RFU, ACBD3 / Fold change vs veh, ACBD3 / RFU, TMA16 / Fold change vs veh, TMA16 / RFU, RWDD3 / Fold change vs veh, RWDD3 / RFU, BCAT1 / Fold change vs veh, BCAT1 / RFU, EDEM3 / Fold change vs veh, EDEM3 / RFU, TMEM33 / Fold change vs veh, TMEM33 / RFU, WDR75 / Fold change vs veh, WDR75 / RFU, AHCTF1 / Fold change vs veh, AHCTF1 / RFU, TFRC / Fold change vs veh, TFRC / RFU, ZDHHC17 / Fold change vs veh, ZDHHC17 / RFU, NOM1 / Fold change vs veh, NOM1 / RFU, ARL8B / Fold change vs veh, ARL8B / RFU, ZBTB11 / Fold change vs veh, ZBTB11 / RFU, TAMM41 / Fold change vs veh, TAMM41 / RFU, KIAA1704 /// LOC100996395 / Fold change vs veh, KIAA1704 /// LOC100996395 / RFU, ING1 / Fold change vs veh, ING1 / RFU, TRMT61B / Fold change vs veh, TRMT61B / RFU, FUBP3 / Fold change vs veh, FUBP3 / RFU, TP53 / Fold change vs veh, TP53 / RFU, TNKS2 / Fold change vs veh, TNKS2 / RFU, ZFP14 / Fold change vs veh, ZFP14 / RFU, ACTR2 / Fold change vs veh, ACTR2 / RFU, PPP3R1 / Fold change vs veh, PPP3R1 / RFU, PIK3R1 / Fold change vs veh, PIK3R1 / RFU, HNRNPA1 / Fold change vs veh, HNRNPA1 / RFU, RNF170 / Fold change vs veh, RNF170 / RFU, ZNF28 / Fold change vs veh, ZNF28 / RFU, RNGTT / Fold change vs veh, RNGTT / RFU, OGT / Fold change vs veh, OGT / RFU, BRD1 / Fold change vs veh, BRD1 / RFU, MARS / Fold change vs veh, MARS / RFU, ZNF655 / Fold change vs veh, ZNF655 / RFU, FAHD1 / Fold change vs veh, FAHD1 / RFU, BDP1 / Fold change vs veh, BDP1 / RFU, LRRCC1 / Fold change vs veh, LRRCC1 / RFU, ARID1A / Fold change vs veh, ARID1A / RFU, ZNF146 / Fold change vs veh, ZNF146 / RFU, ZNF330 / Fold change vs veh, ZNF330 / RFU, GPN3 / Fold change vs veh, GPN3 / RFU, C9orf123 / Fold change vs veh, C9orf123 / RFU, N4BP2L2 / Fold change vs veh, N4BP2L2 / RFU, ARFIP1 / Fold change vs veh, ARFIP1 / RFU, FAM179B / Fold change vs veh, FAM179B / RFU, BCL10 / Fold change vs veh, BCL10 / RFU, UHRF1BP1L / Fold change vs veh, UHRF1BP1L / RFU, BET1 / Fold change vs veh, BET1 / RFU, CNOT2 / Fold change vs veh, CNOT2 / RFU, ZNF268 / Fold change vs veh, ZNF268 / Fold change vs veh, ZNF507 / RFU, DGCR2 / Fold change vs veh, DGCR2 / RFU, WDSUB1 / Fold change vs veh, WDSUB1 / Fold change vs veh, HSP90B1 /// MIR3652 / RFU, ADSS / Fold change vs veh, ADSS / RFU, GK / Fold change vs veh, GK / RFU, ZNF148 / Fold change vs veh, ZNF148 / RFU, TAF9 / Fold change vs veh, TAF9 / RFU, SLC1A5 / Fold change vs veh, SLC1A5 / RFU, SLMO2 / Fold change vs veh, SLMO2 / RFU, ABCC4 / Fold change vs veh, ABCC4 / RFU, LOC101060439 /// RAP1B / Fold change vs veh, LOC101060439 /// RAP1B / RFU, RFX7 / Fold change vs veh, RFX7 / RFU, GTPBP10 / Fold change vs veh, GTPBP10 / RFU, CNEP1R1 / Fold change vs veh, CNEP1R1 / RFU, BIVM-ERCC5 /// ERCC5 / Fold change vs veh, BIVM-ERCC5 /// ERCC5 / RFU, ILF3 / Fold change vs veh, ILF3 / RFU 11762660_at / Fold change /veh 11762660_at / RFU VCAN (11757783_s_at) / Fold change /veh VCAN (11757783_s_at) / RFU DDX43 (11728927_at) / Fold change /veh DDX43 (11728927_at) / RFU KRT8 (11758188_x_at) / Fold change /veh KRT8 (11758188_x_at) / RFU NKD1 (11759106_at) / Fold change /veh NKD1 (11759106_at) / RFU SRD5A1 (11742802_a_at) / Fold change /veh SRD5A1 (11742802_a_at) / RFU TPSAB1 /// TPSB2 (11721975_s_at) / Fold change /veh TPSAB1 /// TPSB2 (11721975_s_at) / RFU GSTM3 (11746129_a_at) / Fold change /veh GSTM3 (11746129_a_at) / RFU IL23R (11737362_x_at) / Fold change /veh IL23R (11737362_x_at) / RFU TMEM51 (11727254_a_at) / Fold change /veh TMEM51 (11727254_a_at) / RFU PIWIL2 (11732686_x_at) / Fold change /veh PIWIL2 (11732686_x_at) / RFU ORM1 (11744905_x_at) / Fold change /veh ORM1 (11744905_x_at) / RFU CCDC152 (11743942_at) / Fold change /veh CCDC152 (11743942_at) / RFU ECM1 (11717891_a_at) / Fold change /veh ECM1 (11717891_a_at) / RFU IL23R (11748794_a_at) / Fold change /veh IL23R (11748794_a_at) / RFU TNFAIP8L3 (11732012_x_at) / Fold change /veh TNFAIP8L3 (11732012_x_at) / RFU MBOAT4 (11741988_at) / Fold change /veh MBOAT4 (11741988_at) / RFU 11764193_at / Fold change /veh 11764193_at / RFU TMEM53 (11763286_at) / Fold change /veh TMEM53 (11763286_at) / RFU MAGEB2 (11727129_at) / Fold change /veh MAGEB2 (11727129_at) / RFU TMEM200A (11744735_a_at) / Fold change /veh TMEM200A (11744735_a_at) / RFU CCDC152 (11751479_a_at) / Fold change /veh CCDC152 (11751479_a_at) / RFU FAM211A (11726209_a_at) / Fold change /veh FAM211A (11726209_a_at) / RFU RGS16 (11746705_a_at) / Fold change /veh RGS16 (11746705_a_at) / RFU VCAN (11755009_s_at) / Fold change /veh VCAN (11755009_s_at) / RFU RHOB (11743442_s_at) / Fold change /veh RHOB (11743442_s_at) / RFU RGS16 (11720943_a_at) / Fold change /veh RGS16 (11720943_a_at) / RFU RGS16 (11720944_at) / Fold change /veh RGS16 (11720944_at) / RFU, VPS4B / Fold change vs veh, VPS4B / RFU, CREB1 / Fold change vs veh, CREB1 / RFU, DNAJC13 / Fold change vs veh, DNAJC13 / RFU, GNAQ / Fold change vs veh, GNAQ / RFU, CDK5R1 / Fold change vs veh, CDK5R1 / RFU, ZRANB3 / Fold change vs veh, ZRANB3 / RFU, CUL4A / Fold change vs veh, CUL4A / RFU, CCNY / Fold change vs veh, CCNY / RFU, UFL1 / Fold change vs veh, UFL1 / RFU, COG3 / Fold change vs veh, COG3 / RFU, DIAPH2 / Fold change vs veh, DIAPH2 / RFU, SKA2 / Fold change vs veh, SKA2 / RFU, AFF3 / Fold change vs veh, AFF3 / RFU, LMF1 / Fold change vs veh, LMF1 / RFU, IPO11 / Fold change vs veh, IPO11 / RFU, DFFB / Fold change vs veh, DFFB / RFU, FOXP1 / Fold change vs veh, FOXP1 / RFU, CARD8 / Fold change vs veh, CARD8 / RFU, STRN3 / Fold change vs veh, STRN3 / RFU, ADK / Fold change vs veh, ADK / RFU, RASSF2 / Fold change vs veh, RASSF2 / RFU, WIPF1 / Fold change vs veh, WIPF1 / RFU, LARP1B / Fold change vs veh, LARP1B / RFU, RASA1 / Fold change vs veh, RASA1 / RFU, RB1 / Fold change vs veh, RB1 / RFU, PPFIA1 / Fold change vs veh, PPFIA1 / RFU, MAT2A / Fold change vs veh, MAT2A / RFU, CCT5 / Fold change vs veh, CCT5 / RFU, WDR92 / Fold change vs veh, WDR92 / RFU, CUX1 / Fold change vs veh, CUX1 / RFU, TTC7A / Fold change vs veh, TTC7A / RFU, TMEM135 / Fold change vs veh, TMEM135 / RFU, DEPTOR / Fold change vs veh, DEPTOR / RFU, CPM / Fold change vs veh, CPM / RFU, DNAJB6 / Fold change vs veh, DNAJB6 / RFU, CACNA2D3 / Fold change vs veh, CACNA2D3 / RFU, DTX4 / Fold change vs veh, DTX4 / RFU, TFCP2 / Fold change vs veh, TFCP2 / RFU, GMCL1 /// GMCL1P1 / Fold change vs veh, GMCL1 /// GMCL1P1 / RFU, AEBP2 / Fold change vs veh, AEBP2 / RFU, SNHG1 /// SNORD22 /// SNORD25 /// SNORD26 /// SNORD27 /// SNORD28 /// SNORD29 /// SNORD31 / Fold change vs veh, SNHG1 /// SNORD22 /// SNORD25 /// SNORD26 /// SNORD27 /// SNORD28 /// SNORD29 /// SNORD31 / Fold change (Aza/veh), C12orf56 (ProbeSet 11735607_a_at) / Fold change (ACY-1035/veh), C12orf56 (ProbeSet 11735607_a_at) / Fold change (Aza/veh), FGFR1OP (ProbeSet 11751329_s_at) / Fold change (ACY-1035/veh), FGFR1OP (ProbeSet 11751329_s_at) / Fold change (Aza/veh), VPS36 (ProbeSet 11739960_a_at) / Fold change (ACY-1035/veh), VPS36 (ProbeSet 11739960_a_at) / RFU SYPL1 (11715823_x_at) / Fold change /veh SYPL1 (11715823_x_at) / RFU IGFBP7 (11715501_s_at) / Fold change /veh IGFBP7 (11715501_s_at) / RFU REEP3 (11722064_at) / Fold change /veh REEP3 (11722064_at) / RFU IGLL1 (11728026_x_at) / Fold change /veh IGLL1 (11728026_x_at): dose or concentration left out as unconfirmed
Conditions: ProbeSet 11727545_at; LIST B

## Nc1ncn([C@@H]2O[C@H](CO)[C@@H](O)[C@H]2O)c(=O)n1 [azacitidine]
  Fold change vs veh, PANK3: 0.85
